Here are results for four compounds from ChEMBL document CHEMBL4251753, “Discovery of Potent 2-Aryl-6,7-dihydro-5 H-pyrrolo[1,2- a]imidazoles as WDR5-WIN-Site Inhibitors Using Fragment-Based Methods and Structure-Based Design” (J Med Chem, 2018).

In the assay the test system is MV4-11. Kind of assay: Antiproliferative activity against human MV4-11 cells after 7 days by cell titer glo assay. Conditions: MV4-11, 168 h. The class given is functional.
Broadly, the GI50 is the concentration at which growth is held to half of that of the control. For `O=C(Cc1ccc(Cl)c(Cl)c1)N[C@@H]1CCc2ccc(-c3cn4c(n3)CCC4)cc21`, the GI50 came out at 8.89 µM.

`COc1cc(C(=O)N[C@@H]2CCc3ccc(-c4cn5c(n4)CCC5)cc32)cc(OC)c1C` displayed a GI50 of 7.25 µM.

For `Cc1cc(C(=O)N[C@@H]2CCc3ccc(-c4cn5c(n4)CCC5)cc32)ccn1`, the GI50 was more than 30 µM. For `COc1cc(C(=O)N[C@@H]2CCCc3ccc(-c4cn5c(n4)CCC5)cc32)ccc1C` the value was 22.3 µM.
